Measurements as given in ChEMBL document CHEMBL1158948, “[Isolation and synthesis of espintanol, a new antiparasitic monoterpene]” (J Nat Prod, 1991).
Converted amounts (≈) assume the structure as drawn.

Legend:
Trypanosoma cruzi [1] = test: Antitrypanosomal activity against Trypanosoma cruzi C8CL1 after 48 hrs; format: functional
Leishmania chagasi [2] = test: Antileishmanial activity against Leishmania donovani chagasi after 48 hrs; format: functional
Leishmania amazonensis [3] = test: Antileishmanial activity against Leishmania mexicana amazonensis after 48 hrs; format: functional
Trypanosoma cruzi [4] = test: Antitrypanosomal activity against Trypanosoma cruzi 27R27CL1 after 48 hrs; format: functional
Trypanosoma cruzi [5] = test: Antitrypanosomal activity against Trypanosoma cruzi Tulahuen after 48 hrs; format: functional
Leishmania braziliensis [6] = test: Antileishmanial activity against Leishmania (Viannia) braziliensis after 48 hrs; format: functional
Trypanosoma cruzi [7] = test: Antitrypanosomal activity against Trypanosoma cruzi Z2 after 48 hrs; format: functional
Trypanosoma cruzi [8] = test: Antitrypanosomal activity against Trypanosoma cruzi 13379 CL6 after 48 hrs; format: functional
Trypanosoma cruzi [9] = test: Antitrypanosomal activity against Trypanosoma cruzi Z1 after 48 hrs; format: functional
Trypanosoma cruzi [10] = test: Antitrypanosomal activity against Trypanosoma cruzi 31R16CL1 after 48 hrs; format: functional
Trypanosoma cruzi [11] = test: Antitrypanosomal activity against Trypanosoma cruzi Y after 48 hrs; format: functional
Trypanosoma cruzi [12] = test: Antitrypanosomal activity against Trypanosoma cruzi C8 CL1 after 48 hrs; format: functional
Trypanosoma cruzi [13] = test: Antitrypanosomal activity against Trypanosoma cruzi 13379 CL8 after 48 hrs; format: functional
Trypanosoma cruzi [14] = test: Antitrypanosomal activity against Trypanosoma cruzi CL after 48 hrs; format: functional
Trypanosoma cruzi [15] = test: Antitrypanosomal activity against Trypanosoma cruzi 13379 CL3 after 48 hrs; format: functional
Trypanosoma cruzi [16] = test: Antitrypanosomal activity against Trypanosoma cruzi 9280CL1 after 48 hrs; format: functional
Trypanosoma cruzi [17] = test: Antitrypanosomal activity against Trypanosoma cruzi A99CL7 after 48 hrs; format: functional
Trypanosoma cruzi [18] = test: Antitrypanosomal activity against Trypanosoma cruzi M6241CL6 after 48 hrs; format: functional
Trypanosoma cruzi [19] = test: Antitrypanosomal activity against Trypanosoma cruzi A98CL5 after 48 hrs; format: functional
Trypanosoma cruzi [20] = test: Antitrypanosomal activity against Trypanosoma cruzi R107 after 48 hrs; format: functional
Trypanosoma cruzi [21] = test: Antitrypanosomal activity against Trypanosoma cruzi Z2CL4 after 48 hrs; format: functional
Trypanosoma cruzi [22] = test: Antitrypanosomal activity against Trypanosoma cruzi MIL4CL10 after 48 hrs; format: functional
Trypanosoma cruzi [23] = test: Antitrypanosomal activity against Trypanosoma cruzi 13379 CL5 after 48 hrs; format: functional
Trypanosoma cruzi [24] = test: Antitrypanosomal activity against Trypanosoma cruzi TeCL2 after 48 hrs; format: functional
Mus musculus = test: Toxicity in BALB/c mouse at 800 mg/kg, ip after 72 hrs; format: organism-based; design: dose 800 mg/kg, route intraperitoneal; conditions: in vivo
[25] = test system: Leishmania mexicana mexicana; test: Antileishmanial activity against Leishmania mexicana mexicana BEL21 after 48 hrs; format: functional
[26] = test system: Leishmania donovani donovani; test: Antileishmanial activity against Leishmania donovani donovani HS 70 after 48 hrs; format: functional
Leishmania infantum = test: Antileishmanial activity against Leishmania donovani infantum LEM 209 after 48 hrs; format: functional, LEM209
Leishmania guyanensis = test: Antileishmanial activity against Leishmania (Viannia) guyanensis M4147 after 48 hrs; format: functional
Leishmania garnhami = test: Antileishmanial activity against Leishmania mexicana garnhami JAP78 after 48 hrs; format: functional
Leishmania peruviana = test: Antileishmanial activity against Leishmania (Viannia) peruviana PERU after 48 hrs; format: functional
Leishmania pifanoi = test: Antileishmanial activity against Leishmania pifanoi LL1 after 48 hrs; format: functional
Leishmania chagasi [27] = test: Antileishmanial activity against Leishmania donovani chagasi LEM 379 after 48 hrs; format: functional
[28] = test system: Leishmania mexicana venezuelensis; test: Antileishmanial activity against Leishmania mexicana venezuelensis PM H3 after 48 hrs; format: functional
Leishmania amazonensis [29] = test: Antileishmanial activity against Leishmania mexicana amazonensis PH8 after 48 hrs; format: functional
Leishmania aristidesi = test: Antileishmanial activity against Leishmania mexicana […] 6331 after 48 hrs; format: functional
Leishmania braziliensis [30] = test: Antileishmanial activity against Leishmania (Viannia) braziliensis 2904 after 48 hrs; format: functional

| Compound | IC90 (Trypanosoma cruzi [1]) [µg/mL] | IC90 (Leishmania chagasi [2]) [µg/mL] | IC90 (Leishmania amazonensis [3]) [µg/mL] | IC90 (Trypanosoma cruzi [4]) [µg/mL] | IC90 (Trypanosoma cruzi [5]) [µg/mL] | IC90 (Leishmania braziliensis [6]) [µg/mL] | IC90 (Trypanosoma cruzi [7]) [µg/mL] | IC90 (Trypanosoma cruzi [8]) [µg/mL] | IC90 (Trypanosoma cruzi [9]) [µg/mL] | IC90 (Trypanosoma cruzi [10]) [µg/mL] | IC90 (Trypanosoma cruzi [11]) [µg/mL] | IC90 (Trypanosoma cruzi [12]) [µg/mL] | IC90 (Trypanosoma cruzi [13]) [µg/mL] | IC90 (Trypanosoma cruzi [14]) [µg/mL] | IC90 (Trypanosoma cruzi [15]) [µg/mL] | IC90 (Trypanosoma cruzi [16]) [µg/mL] | IC90 (Trypanosoma cruzi [17]) [µg/mL] | IC90 (Trypanosoma cruzi [18]) [µg/mL] | IC90 (Trypanosoma cruzi [19]) [µg/mL] | IC90 (Trypanosoma cruzi [20]) [µg/mL] | also measured |
| --- | --- | --- | --- | --- | --- | --- | --- | --- | --- | --- | --- | --- | --- | --- | --- | --- | --- | --- | --- | --- | --- |
| COc1cc(C(C)C)ccc1C | > 100 | 25 (≈ 152 µM) | 25 (≈ 152 µM) | > 100 | > 100 | 25 (≈ 152 µM) | – | – | – | – | – | – | – | – | – | – | – | – | – | – | – |
| COc1cc(C)c(OC)c(OC)c1C(C)C | > 100 | > 100 | > 100 | > 100 | > 100 | > 100 | – | – | – | – | – | – | – | – | – | – | – | – | – | – | – |
| O=C(Cn1ccnc1[N+](=O)[O-])NCc1ccccc1 [BENZNIDAZOLE] | – | – | – | 100 (≈ 384 µM) | 50 (≈ 192 µM) | – | 100 (≈ 384 µM) | > 100 | 100 (≈ 384 µM) | 100 (≈ 384 µM) | 25 (≈ 96.1 µM) | 100 (≈ 384 µM) | > 100 | 100 (≈ 384 µM) | > 100 | 50 (≈ 192 µM) | 100 (≈ 384 µM) | > 100 | 100 (≈ 384 µM) | 50 (≈ 192 µM) | IC90 (Trypanosoma cruzi [21]): 100 µg/mL (≈ 384 µM); IC90 (Trypanosoma cruzi [22]): 25 µg/mL (≈ 96.1 µM); IC90 (Trypanosoma cruzi [23]): 100 µg/mL (≈ 384 µM); IC90 (Trypanosoma cruzi [24]): 25 µg/mL (≈ 96.1 µM) |
| COc1cc(C)c(O)c(OC)c1C(C)C [ESPINTANOL] | 25 (≈ 119 µM) | 10 (≈ 47.6 µM) | 25 (≈ 119 µM) | 25 (≈ 119 µM) | 25 (≈ 119 µM) | 10 (≈ 47.6 µM) | 50 (≈ 238 µM) | 100 (≈ 476 µM) | 50 (≈ 238 µM) | 50 (≈ 238 µM) | 50 (≈ 238 µM) | 25 (≈ 119 µM) | 50 (≈ 238 µM) | > 100 | 50 (≈ 238 µM) | 50 (≈ 238 µM) | 25 (≈ 119 µM) | > 100 | > 100 | 25 (≈ 119 µM) | Activity (Mus musculus): Active; IC90 [25]: 25 µg/mL (≈ 119 µM); IC90 [26]: 50 µg/mL (≈ 238 µM); IC90 (Leishmania infantum): 25 µg/mL (≈ 119 µM); IC90 (Leishmania guyanensis): 25 µg/mL (≈ 119 µM); IC90 (Leishmania garnhami): 25 µg/mL (≈ 119 µM); IC90 (Leishmania peruviana): 25 µg/mL (≈ 119 µM); IC90 (Leishmania pifanoi): 25 µg/mL (≈ 119 µM); IC90 (Leishmania chagasi [27]): 25 µg/mL (≈ 119 µM); IC90 [28]: 50 µg/mL (≈ 238 µM); IC90 (Leishmania amazonensis [29]): 25 µg/mL (≈ 119 µM); IC90 (Leishmania aristidesi): 25 µg/mL (≈ 119 µM); IC90 (Trypanosoma cruzi [21]): 100 µg/mL (≈ 476 µM); IC90 (Leishmania braziliensis [30]): 10 µg/mL (≈ 47.6 µM); IC90 (Trypanosoma cruzi [22]): 25 µg/mL (≈ 119 µM); IC90 (Trypanosoma cruzi [23]): 50 µg/mL (≈ 238 µM); IC90 (Trypanosoma cruzi [24]): 25 µg/mL (≈ 119 µM) |
| CC1CS(=O)(=O)CCN1/N=C/c1ccc([N+](=O)[O-])o1 (configuration not stated) [NIFURTIMOX] | – | – | – | 100 (≈ 348 µM) | 25 (≈ 87 µM) | – | 25 (≈ 87 µM) | > 100 | 50 (≈ 174 µM) | 100 (≈ 348 µM) | 25 (≈ 87 µM) | 25 (≈ 87 µM) | 50 (≈ 174 µM) | 100 (≈ 348 µM) | > 100 | 50 (≈ 174 µM) | 25 (≈ 87 µM) | 50 (≈ 174 µM) | 100 (≈ 348 µM) | 25 (≈ 87 µM) | IC90 (Trypanosoma cruzi [21]): 50 µg/mL (≈ 174 µM); IC90 (Trypanosoma cruzi [22]): 50 µg/mL (≈ 174 µM); IC90 (Trypanosoma cruzi [23]): 100 µg/mL (≈ 348 µM); IC90 (Trypanosoma cruzi [24]): 25 µg/mL (≈ 87 µM) |
| N=C(N)c1ccc(OCCCCCOc2ccc(C(=N)N)cc2)cc1 [PENTAMIDINE] | – | – | – | – | – | – | – | – | – | – | – | – | – | – | – | – | – | – | – | – | IC90 [25]: 1 µg/mL (≈ 2.94 µM); IC90 [26]: 1 µg/mL (≈ 2.94 µM); IC90 (Leishmania infantum): 1 µg/mL (≈ 2.94 µM); IC90 (Leishmania guyanensis): 5 µg/mL (≈ 14.7 µM); IC90 (Leishmania garnhami): 1 µg/mL (≈ 2.94 µM); IC90 (Leishmania peruviana): 5 µg/mL (≈ 14.7 µM); IC90 (Leishmania pifanoi): 1 µg/mL (≈ 2.94 µM); IC90 (Leishmania chagasi [27]): 1 µg/mL (≈ 2.94 µM); IC90 [28]: 5 µg/mL (≈ 14.7 µM); IC90 (Leishmania amazonensis [29]): 1 µg/mL (≈ 2.94 µM); IC90 (Leishmania aristidesi): 1 µg/mL (≈ 2.94 µM); IC90 (Leishmania braziliensis [30]): 1 µg/mL (≈ 2.94 µM) |
| COc1cc(C(C)C)c(OC)cc1C [THYMOQUINOL DIMETHYLETHER] | > 100 | > 100 | > 100 | > 100 | > 100 | > 100 | – | – | – | – | – | – | – | – | – | – | – | – | – | – | – |
| MEGLUMINE ANTIMONATE | – | – | – | – | – | – | – | – | – | – | – | – | – | – | – | – | – | – | – | – | IC90 [25]: > 100 µg/mL; IC90 [26]: > 100 µg/mL; IC90 (Leishmania chagasi [27]): > 100 µg/mL; IC90 [28]: > 100 µg/mL; IC90 (Leishmania aristidesi): > 100 µg/mL |
